Experimental data from ChEMBL document CHEMBL6096732 (J Med Chem, 2025).
Calls of active or inactive are those of the source. No cut-off for these calls is given here.

How the values were obtained:
[1] = system: B16-F10; test: Antitumor activity against mouse B16-F10 cells implanted in male C57BL/6 mouse model assessed as tumor growth inhibition at 20 mg/kg, po administered once daily via gavage for 14 days relative to control; format: functional; details: B16-F10, 336 h, time 14 day, read-out: TGI
[2] = system: Mus musculus; test: In vivo induction of PD-L1 degradation in male C57BL/6 mouse model implanted with mouse B16-F10 cells assessed as decrease in PD-L1 protein expression in tumor at 20 mg/kg, po administered once daily via gavage for 14 days by DAPI staining based immunofluorescence analysis; format: functional, organism-based; details: time 14.0 day
[3] = target: T1, Histone deacetylase 3 (Mus musculus) (UniProt O88895); test: In vivo inhibition of HDAC3 in male C57BL/6 mouse model implanted with mouse B16-F10 cells assessed as increase in acetylated histone H3 level in tumor at 20 mg/kg, po administered once daily via gavage for 14 days by DAPI staining based immunofluorescence analysis; format: functional, organism-based; details: time 14.0 day
T1 sequence (whole entry): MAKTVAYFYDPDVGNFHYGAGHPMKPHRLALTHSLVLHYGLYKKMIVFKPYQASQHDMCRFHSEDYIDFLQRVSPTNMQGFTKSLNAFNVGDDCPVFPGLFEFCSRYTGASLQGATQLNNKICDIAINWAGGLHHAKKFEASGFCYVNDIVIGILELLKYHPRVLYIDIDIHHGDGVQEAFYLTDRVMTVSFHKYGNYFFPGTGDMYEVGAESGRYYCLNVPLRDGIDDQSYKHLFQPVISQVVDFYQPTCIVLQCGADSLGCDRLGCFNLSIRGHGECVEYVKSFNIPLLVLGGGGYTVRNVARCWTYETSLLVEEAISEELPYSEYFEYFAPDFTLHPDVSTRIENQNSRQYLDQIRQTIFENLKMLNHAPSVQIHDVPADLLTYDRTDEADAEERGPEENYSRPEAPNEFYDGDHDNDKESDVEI

[4] = system: Mus musculus; test: Immunomodulatory activity in male C57BL/6 mouse model implanted with mouse B16-F10 cells assessed as increase in CD3+ CD4+ T cells in tumor at 20 mg/kg, po administered once daily for 14 days by flow cytometric analysis (reference value: 3.1 %); format: functional; details: time 14 day
[5] = system: Mus musculus; test: Immunomodulatory activity in male C57BL/6 mouse model implanted with mouse B16-F10 cells assessed as increase in CD3+ CD8+ T cells in tumor at 20 mg/kg, po administered once daily for 14 days by flow cytometric analysis (reference value: 3.2 %); format: functional; details: time 14 day
[6] = Oral bioavailability in male C57BL/6 mouse at 20 mg/kg; format: ADME, organism-based; details: in vivo
[7] = system: 4T1; test: Antitumor activity against mouse 4T1 cells implanted in female BALB/c mouse model assessed as tumor growth inhibition administrated orally as once daily dose via gavage for 14 days relative to control; format: functional; details: route po; time 14 day
[8] = Toxicity in female BALB/c mouse model implanted with mouse 4T1 cells assessed as effect on body weight administrated orally as once daily dose via gavage for 14 days; details: in vivo, po, 336 h, time 14 day
[9] = system: 4T1; test: Downregulation of PARP1 expression in mouse 4T1 cells at 2 uM incubated for 24 hrs by Western blot analysis; format: functional, cell-based
[10] = system: B16-F10; test: Induction of DNA damage in mouse B16-F10 cells assessed as increase in gamma-H2AX expression at 2 uM incubated for 24 hrs by Western blot analysis; format: functional, cell-based
[11] = system: 4T1; test: Induction of DNA damage in mouse 4T1 cells assessed as increase in gamma-H2AX expression at 2 uM incubated for 24 hrs by Western blot analysis; format: functional, cell-based
[12] = system: B16-F10; test: Downregulation of PARP1 expression in mouse B16-F10 cells at 2 uM incubated for 24 hrs by Western blot analysis; format: functional, cell-based
[13] = system: 4T1; test: Antitumor activity against mouse 4T1 cells implanted in female BALB/c mouse model assessed as decrease in PAPR1 expression in tumor administrated orally as once daily dose via gavage for 14 days by Western blot analysis; format: functional, cell-based; details: route po, time 14.0 day
[14] = system: 4T1; test: Antitumor activity against mouse 4T1 cells implanted in female BALB/c mouse model assessed as induction of DNA damage by measuring increase in gamma-H2AX expression in tumor administrated orally as once daily dose via gavage for 14 days by Western blot analysis; format: functional, cell-based; details: route po, time 14.0 day

Compound	inhibition in vivo at 20 mg/kg [1] [%]	Activity [2]	inhibition [3]	Activity [4] [%]	Activity [5] [%]	bioavailability [6] [%]	TGI [7] [%]	Activity [8]	Activity [9]	Activity [10]	Activity [11]	Activity [12]	Activity [13]	Activity [14]
Cc1c(COc2cc(OCc3cccc(C#N)c3)c(CNC(C)(C)C(=O)O)cc2Cl)cccc1-c1ccccc1	37	Active	inactive	27	27	< 5	–	–	–	–	–	–	–	–
O=C(c1cc(Cc2n[nH]c(=O)c3ccccc23)ccc1F)N1CCN(C(=O)C2CC2)CC1 [OLAPARIB]	–	–	–	–	–	–	36	Non-toxic	Active	Active	Active	Active	Active	Active
